# Data published in ChEMBL document CHEMBL5512665, “A CARM1 Inhibitor Potently Suppresses Breast Cancer Both In Vitro and In Vivo” (J Med Chem, 2024).
# Calls of active or inactive are those of the source. No cut-off for these calls is given here.
# Legend:
# [1] = Toxicity in BALB/C mouse implanted with mouse 4T1 cells assessed as change in spleen morphology at 25 mg/kg,ip administrated daily for 14 days; type: organism-based; conditions: in vivo, 336 h, time 14 day
# [2] = system: 4T1; assay: Antitumor activity against mouse 4T1 cells implanted in BALB/C mouse assessed as downregulation of CCND1 gene expression at 25 mg/kg,ip administrated daily for 14 days by RT-qPCR analysis; type: functional, organism-based; conditions: time 14.0 day
# [3] = system: MCF7; assay: Antitumor activity against human MCF7 cells xenografted in BALB/C mouse assessed as upregulation of CCL5 gene expression at 25 mg/kg,ip administrated every other day for 29 days by RT-qPCR analysis; type: functional, organism-based; conditions: time 29.0 day
# [4] = system: 4T1; assay: Potentiation of etoposide induced antitumor activity against mouse 4T1 cells implanted in BALB/C mouse assessed as upregulation of IFIT1 gene expression at 25 mg/kg,ip administrated daily for 12 days in presence of 8 mg/kg etoposide administration by RT-qPCR analysis; type: functional, organism-based; conditions: time 12.0 day
# [5] = system: MCF7; assay: Antitumor activity against human MCF7 cells xenografted in BALB/C mouse assessed as downregulation of N-Myc gene expression at 50 mg/kg,ip administrated every other day for 29 days by RT-qPCR analysis; type: functional, organism-based; conditions: time 29.0 day
# [6] = system: MCF7; assay: Synergistic antitumor activity against human MCF7 cells xenografted in BALB/C mouse assessed as downregulation of GREB1 gene expression at 25 mg/kg,ip administrated every other day for 15 days in presence of 5 mg/kg tamoxifen oral administration by RT-qPCR analysis; type: functional, organism-based; conditions: time 15.0 day
# [7] = system: MDA-MB-231; assay: Antitumor activity against human MDA-MB-231 cells xenografted in BALB/C mouse assessed as reduction of tumor size at 25 mg/kg,ip administrated daily for 11 days; type: functional, organism-based; conditions: time 11.0 day
# [8] = system: MCF7; assay: Potentiation of etoposide induced antiproliferative activity against human MCF7 cells assessed as upregulation of IFNalpha gene expression at 2.5 uM in presence of etoposide by RT-qPCR analysis; type: functional, cell-based
# [9] = system: MCF7; assay: Synergistic antitumor activity against human MCF7 cells xenografted in BALB/C mouse assessed as reduction in tumor weight at 25 mg/kg,ip administrated every other day for 15 days in presence of 5 mg/kg tamoxifen oral administration; type: functional, organism-based; conditions: time 15.0 day
# [10] = system: MCF7; assay: Synergistic antitumor activity against human MCF7 cells xenografted in BALB/C mouse assessed as downregulation of FOXC1 gene expression at 25 mg/kg,ip administrated every other day for 15 days in presence of 5 mg/kg tamoxifen oral administration by RT-qPCR analysis; type: functional, organism-based; conditions: time 15.0 day
# [11] = system: T47D; assay: Induction of cell cycle arrest in human T47D cells at 2.5 to 10 uM incubated overnight by propidium iodide staining based flow cytometry; type: functional; conditions: dose 2.5-10 µM
# [12] = system: 4T1; assay: Antitumor activity against mouse 4T1 cells implanted in BALB/C mouse assessed as downregulation of NRIP1 gene expression at 50 mg/kg,ip administrated daily for 14 days by RT-qPCR analysis; type: functional, organism-based; conditions: time 14.0 day
# [13] = system: 4T1; assay: Potentiation of etoposide induced antiproliferative activity against mouse 4T1 cells assessed as inhibition of cell growth at 2.5 uM incubated for 7 days in presence of etoposide by celltiter 96 aqueous one solution cell proliferation assay; type: functional, cell-based; conditions: time 7.0 day
# [14] = Toxicity in BALB/C mouse xenografted with human MCF7 cells assessed as change in body weight at 25 mg/kg,ip administrated every other day for 29 days; type: organism-based; conditions: in vivo, 696 h, time 29 day
# [15] = Toxicity in BALB/C mouse implanted with mouse 4T1 cells assessed as change in kidney morphology at 50 mg/kg,ip administrated daily for 14 days; type: organism-based; conditions: in vivo, 336 h, time 14 day
# [16] = system: MCF7; assay: Synergistic antiproliferative activity against human MCF7 cells assessed as downregulation of N-Myc gene expression at 2.5 uM incubated for 6 hrs in presence of tamoxifen by RT-qPCR analysis; type: functional, cell-based
# [17] = system: MCF7; assay: Antitumor activity against human MCF7 cells xenografted in BALB/C mouse assessed as reduction of tumor size at 50 mg/kg,ip administrated every other day for 29 days; type: functional, organism-based; conditions: time 29.0 day
# [18] = Toxicity in BALB/C mouse xenografted with human MCF7 cells assessed as change in heart morphology at 50 mg/kg,ip administrated every other day for 29 days; type: organism-based; conditions: in vivo, 696 h, time 29 day
# [19] = system: MCF7; assay: Antitumor activity against human MCF7 cells xenografted in BALB/C mouse assessed as downregulation of GREB1 gene expression at 25 mg/kg,ip administrated every other day for 29 days by RT-qPCR analysis; type: functional, organism-based; conditions: time 29.0 day
# [20] = Toxicity in BALB/C mouse xenografted with human MDA-MB-231 cells assessed as change in body weight at 50 mg/kg,ip administrated daily for 11 days; type: organism-based; conditions: in vivo, 264 h, time 11 day
# [21] = system: 4T1; assay: Potentiation of etoposide induced antitumor activity against mouse 4T1 cells implanted in BALB/C mouse assessed as reduction in tumor size at 25 mg/kg,ip administrated daily for 12 days in presence of 8 mg/kg etoposide administration; type: functional, organism-based; conditions: time 12.0 day
# [22] = system: MCF7; assay: Antitumor activity against human MCF7 cells xenografted in BALB/C mouse assessed as downregulation of FOXC1 gene expression at 25 mg/kg,ip administrated every other day for 29 days by RT-qPCR analysis; type: functional, organism-based; conditions: time 29.0 day
# [23] = Toxicity in BALB/C mouse xenografted with human MCF7 cells assessed as change in body weight at 25 mg/kg,ip administrated every other day for 15 days in presence of 5 mg/kg tamoxifen oral administration; type: organism-based; conditions: in vivo, 360 h, time 15 day
# [24] = system: MCF7; assay: Antitumor activity against human MCF7 cells xenografted in BALB/C mouse assessed as upregulation of DDX58 gene expression at 50 mg/kg,ip administrated every other day for 29 days by RT-qPCR analysis; type: functional, organism-based; conditions: time 29.0 day
# [25] = system: MCF7; assay: Antitumor activity against human MCF7 cells xenografted in BALB/C mouse assessed as downregulation of PGR gene expression at 50 mg/kg,ip administrated every other day for 29 days by RT-qPCR analysis; type: functional, organism-based; conditions: time 29.0 day
# [26] = Toxicity in BALB/C mouse implanted with mouse 4T1 cells assessed as change in body weight at 25 mg/kg,ip administrated daily for 14 days; type: organism-based; conditions: in vivo, 336 h, time 14 day
# [27] = Toxicity in BALB/C mouse implanted with mouse 4T1 cells assessed as change in liver morphology at 50 mg/kg,ip administrated daily for 14 days; type: organism-based; conditions: in vivo, 336 h, time 14 day
# [28] = system: 4T1; assay: Antitumor activity against mouse 4T1 cells implanted in BALB/C mouse assessed as downregulation of C-Myc gene expression at 50 mg/kg,ip administrated daily for 14 days by RT-qPCR analysis; type: functional, organism-based; conditions: time 14.0 day
# [29] = system: MCF7; assay: Potentiation of etoposide induced antiproliferative activity against human MCF7 cells assessed as inhibition of colony formation at 2.5 uM incubated for 10 days in presence of etoposide by crystal violet staining based analysis; type: functional, cell-based; conditions: time 10.0 day
# [30] = system: MCF7; assay: Antitumor activity against human MCF7 cells xenografted in BALB/C mouse assessed as downregulation of C-Myc gene expression at 25 mg/kg,ip administrated every other day for 29 days by RT-qPCR analysis; type: functional, organism-based; conditions: time 29.0 day
# [31] = system: MCF7; assay: Synergistic antiproliferative activity against human MCF7 cells assessed as inhibition of cell growth at 2.5 uM incubated for 7 days in presence of tamoxifen by celltiter 96 aqueous one solution cell proliferation assay; type: functional, cell-based; conditions: time 7.0 day
smiles,measurement,setting,value
Cc1ccc(-c2nc(N3CCN(CCN(C)C)CC3)ncc2-c2ccoc2)cc1.Cl.Cl,Activity,[1],Non-Toxic
same,Activity,[2],Active
same,Activity,[3],Active
same,Activity,[4],Active
same,Activity,[5],Active
same,Activity,[6],Active
same,Activity,[7],Active
same,Activity,[8],Active
same,Activity,[9],Active
same,Activity,[10],Active
same,Activity,[11],Active
same,Activity,[12],Active
same,Activity,[13],Active
same,Activity,[14],Non-Toxic
same,Activity,[15],Non-Toxic
same,Activity,[16],Active
same,Activity,[17],Active
same,Activity,[18],Non-Toxic
same,Activity,[19],Active
same,Activity,[20],Non-Toxic
same,Activity,[21],Active
same,Activity,[22],Active
same,Activity,[23],Non-Toxic
same,Activity,[24],Active
same,Activity,[25],Active
same,Activity,[26],Non-Toxic
same,Activity,[27],Non-Toxic
same,Activity,[28],Active
same,Activity,[29],Active
same,Activity,[30],Active
same,Activity,[31],Active
